Laboratory results published in patent US20250092065A1, “2-(INDAZOL-5-YL)-6-(PIPERIDIN-4-YL)-1,7-NAPHTHYRIDINE DERIVATIVES AND RELATED COMPOUNDS AS MODULATORS FOR SPLICING NUCLEIC ACIDS AND FOR THE TREATMENT OF PROLIFERATIVE DISEASES” (REMIX THERAPEUTICS INC., priority 2022, published 2025).
Where two headings read alike, the source gives them in different places.

Tests used:
HTT mRNA = test: RT-qPCR splicing assay, HTT mRNA canonical (CJ) and alternative (AJ) junction; assay type: cell-based, human; conditions: Homo sapiens; for AC50: HTT alternative junction mRNA, read-out: HTT AJ (increase in AJ mRNA, AC50)
How it was run: (§1)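 A673 or K562 cells treated 24 h at 37 °C with an 11-point 3-fold dilution series (top 10 uM, DMSO ≤0.25%). Lysates went directly to one-step RT-qPCR quantifying canonical (CJ) and alternative-exon (AJ) junctions, normalized to GAPDH, GUSB or PPIA. Values from ΔΔCt versus DMSO, RQ = 2^(−ΔΔCt), expressed as percentage response.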

HTT = test: HiBiT protein abundance assay, HTT (K562 HiBiT knock-in); assay type: cell-based, human; conditions: HiBiT knock-in K562 cells, 24 hours, top dose 10 μM
How it was run: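 Endogenously HiBiT-tagged K562 lines were treated for 24 h at 37 °C with 10-point 3-fold dilutions (top 10 μM final, DMSO ≤0.25%). Lytic LgBiT complementation luminescence was normalized between unmodified K562 (PC) and DMSO-treated tagged cells (NC); IC50 was interpolated at 50% from a four-parameter logistic fit.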

K562 cells = test: Cell Titer Glo 2.0 cell viability (toxicity) assay, K562; conditions: 500 cells/well, 72 hours
Target C = test: HiBiT protein abundance assay, Target C (K562 HiBiT knock-in); assay type: cell-based, human; conditions: HiBiT knock-in K562 cells, 24 hours, top dose 10 μM
How it was run: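 K562 HiBiT knock-in cells (10000/well) were treated 24 h at 37° C with a 10-point 3-fold dilution series (top 10 μM final, ≤0.25% DMSO). HiBiT luminescence was read after lytic LgBiT detection. Percent response used unmodified K562 and DMSO-treated knock-in controls, and IC50 came from a four-parameter fit at 50% of untreated.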

SMN2 mRNA = test: RT-qPCR splicing assay, SMN2 mRNA; assay type: cell-based, human; conditions: Homo sapiens, canonical junction qPCR panel, Table 4; read-out: SMN2 IC50 (decrease in CJ mRNA levels)
How it was run: as §1

[1] = HTT canonical junction mRNA, RT-qPCR, read-out: HTT CJ (decrease in CJ mRNA levels, IC50)
[2] = canonical junction qPCR panel, Table 4, read-out: HTT IC50 (decrease in CJ mRNA levels)

Row | SMILES | AC50 (HTT mRNA; RT-qPCR) | IC50 (HTT mRNA; [1]) | IC50 (HTT mRNA; [2]) | IC50 (HTT) | Effect of Exemplary Compounds on Cell Viability, K562 (K562 cells) | IC50 (Target C) | IC50 (SMN2 mRNA)
1 | C[C@H]1C[C@H](c2ccc3nc(-c4cc5cn(C)nc5c(F)c4O)ccc3n2)CCN1 (single isomer, unassigned) [Compound 356] | < 100 nM | < 100 nM | < 100 nM | < 100 nM | A (A represents <100 nM) | < 100 nM | < 100 nM
2 | Cc1c(O)c(-c2ccc3nc(N4CC[C@H](N[C@H]5C[C@H](F)C5)C4)ccc3n2)cc2cn(C)nc12 (single isomer, unassigned) [Compound 358] | < 100 nM | < 100 nM | < 100 nM | < 100 nM | B (B represents 100-1000 nM) | < 100 nM | < 100 nM
3 | Cn1cc2cc(-c3ccc4nc(N5CC[C@@H](N)C5)ccc4n3)c(O)c(F)c2n1 (single isomer, unassigned) [Compound 362] | < 100 nM | < 100 nM | < 100 nM | < 100 nM | A (A represents <100 nM) | < 100 nM | < 100 nM
4 | CN[C@@H]1CCN(c2ccc3nc(-c4cc5cn(C)nc5c(C)c4O)ncc3n2)C1 (single isomer, unassigned) [Compound 368] | 100 to 1000 nM | 100 to 1000 nM | 100 to 1000 nM | 100 to 1000 nM | A (A represents <100 nM) | 100 to 1000 nM | < 100 nM
5 | CN[C@H]1CCN(c2ccc3nc(-c4cc5cn(C)nc5c(C)c4O)ncc3n2)C1 (single isomer, unassigned) [Compound 369] | 100 to 1000 nM | 100 to 1000 nM | 100 to 1000 nM | 100 to 1000 nM | B (B represents 100-1000 nM) | 100 to 1000 nM | < 100 nM
6 | Cc1nc2c(F)c(O)c(-c3ccc4nc(N5CC[C@H](NC6(CF)CC6)C5)ccc4n3)cc2o1 (single isomer, unassigned) [Compound 373] | < 100 nM | < 100 nM | < 100 nM | < 100 nM | A (A represents <100 nM) | < 100 nM | < 100 nM
7 | Cc1nc2c(C)c(O)c(-c3ccc4nc(N5CC[C@H](NC6(CF)CC6)C5)ccc4n3)cc2o1 (single isomer, unassigned) [Compound 378] | < 100 nM | < 100 nM | < 100 nM | < 100 nM | B (B represents 100-1000 nM) | < 100 nM | < 100 nM
8 | Cc1nc2c(C)c(O)c(-c3ccc4nc(N5CC[C@@H](NC6(CF)CC6)C5)ccc4n3)cc2o1 (single isomer, unassigned) [Compound 379] | 100 to 1000 nM | < 100 nM | < 100 nM | < 100 nM | B (B represents 100-1000 nM) | 100 to 1000 nM | < 100 nM
9 | Cn1cc2cc(-c3ncc4nc(N5CC[C@@H](N)C5)ccc4n3)c(O)c(F)c2n1 (single isomer, unassigned) [Compound 380] | 100 to 1000 nM | < 100 nM | < 100 nM | < 100 nM | A (A represents <100 nM) | 100 to 1000 nM | < 100 nM
10 | C[C@H]1C[C@@H](c2ccc3nc(-c4cc5cn(C)nc5c(F)c4O)ccc3n2)CCN1 (single isomer, unassigned) [Compound 383] | < 100 nM | < 100 nM | < 100 nM | < 100 nM | A (A represents <100 nM) | < 100 nM | < 100 nM
11 | Cn1cc2cc(-c3ccc4nc(C5CCNC[C@H]5O)ccc4n3)c(O)cc2n1 (single isomer, unassigned) [Compound 386] | > 10000 nM | > 10000 nM | > 10000 nM | 1000 to 10000 nM | C (C represents 1000-9999 nM) | 1000 to 10000 nM | < 100 nM
12 | Cn1cc2cc(-c3ccc4nc(N5CC[C@@H](NC(C)(C)C)C5)ccc4n3)c(O)c(F)c2n1 (single isomer, unassigned) [Compound 391] | < 100 nM | < 100 nM | < 100 nM | < 100 nM | A (A represents <100 nM) | < 100 nM | < 100 nM
13 | Cn1cc2cc(-c3ccc4nc(N5CC[C@H](NC(C)(C)C)C5)ccc4n3)c(O)c(F)c2n1 (single isomer, unassigned) [Compound 392] | < 100 nM | < 100 nM | < 100 nM | < 100 nM | A (A represents <100 nM) | < 100 nM | < 100 nM
14 | Cc1c(O)c(-c2ncc3nc([C@@H]4CCNC4)ccc3n2)cc2cn(C)nc12 (single isomer, unassigned) [Compound 398] | 1000 to 10000 nM | 1000 to 10000 nM | 1000 to 10000 nM | 1000 to 10000 nM | C (C represents 1000-9999 nM) | 1000 to 10000 nM | < 100 nM
15 | Cc1nc2c(C)c(O)c(-c3ccc4nc(N5CC[C@@H](NC6CC6)C5)ncc4n3)cc2o1 (single isomer, unassigned) [Compound 432] | < 100 nM | < 100 nM | < 100 nM | < 100 nM | B (B represents 100-1000 nM) | < 100 nM | < 100 nM
16 | Cc1nc2cc(O)c(-c3ccc4nc(N5CC[C@@H](NC6CC6)C5)ncc4n3)cc2o1 (single isomer, unassigned) [Compound 434] | < 100 nM | < 100 nM | < 100 nM | 100 to 1000 nM | B (B represents 100-1000 nM) | < 100 nM | < 100 nM
17 | Cc1nc2c(C)c(O)c(-c3ccc4cc(N5CC[C@@H](NC(C)(C)C)C5)ncc4n3)cc2o1 (single isomer, unassigned) [Compound 444] | 100 to 1000 nM | < 100 nM | < 100 nM | < 100 nM | B (B represents 100-1000 nM) | 100 to 1000 nM | < 100 nM
18 | Cc1nc2c(C)c(O)c(-c3ccc4cc(N5CC[C@H](NC(C)(C)C)C5)ncc4n3)cc2o1 (single isomer, unassigned) [Compound 445] | 1000 to 10000 nM | 1000 to 10000 nM | 1000 to 10000 nM | 100 to 1000 nM | C (C represents 1000-9999 nM) | 1000 to 10000 nM | 100 to 1000 nM
19 | Cc1nc2cc(O)c(-c3ccc4nc(N5CC[C@@H](NC6(CF)CC6)C5)ccc4n3)cc2o1 (single isomer, unassigned) [Compound 488] | < 100 nM | < 100 nM | < 100 nM | < 100 nM | B (B represents 100-1000 nM) | < 100 nM | < 100 nM
